{"source": "patent US20040076974A1", "about": "“Liver necrosis predictive genes” (priority 2002, published 2004)", "key": {"Sprague Dawley rats": {"system": "Sprague Dawley rats", "details": "for Liver Necrosis / Score (histopathology liver necrosis severity score): rat, intraperitoneal; for Liver Necrosis: 72 hours after treatment; for Score (histopathology liver necrosis severity score): 72 hours, 1 = not remarkable, 2 and higher increasing severity", "procedure,_shortened": "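Toxicity calls (necrosis present or absent at 72 h) and histopathology scores were correlated with tissue gene expression from Crl:CD Sprague Dawley rats. Animals, usually 3 treated with compound by i.p. route and 3 given vehicle, were killed at 6, 24 or 72 h and tissues frozen immediately in liquid nitrogen.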"}, "[1]": {"system": "toxicologically relevant rat genes (rat CT array)", "details": "24 h"}}, "note": "Where “and” joins values, the source holds several entries; their conditions need not be identical. Equal values may be shown once. Read-outs that look alike come from different tables or passages of the source.", "data": [{"molecule": "ClC(Cl)(Cl)Cl", "note": "[carbon tetrachloride]", "values": [{"measurement": "Liver Toxicity Necrosis Classification", "setting": "Sprague Dawley rats; 72 h, dose 250", "value": "yes"}, {"measurement": "Liver Toxicity Necrosis Classification", "setting": "Sprague Dawley rats; 72 h, dose 1000", "value": "yes"}, {"measurement": "Liver Toxicity Necrosis Classification", "setting": "Sprague Dawley rats; compound-dose group at 72 h, CCL4 1000, DMN 20, LPS 8", "value": "yes"}, {"measurement": "Liver Toxicity Necrosis Classification", "setting": "Sprague Dawley rats; compound-dose group at 72 h, dose 250", "value": "yes"}, {"measurement": "Liver Toxicity Necrosis Classification", "setting": "Sprague Dawley rats; compound-dose group at 72 h, dose 1000", "value": "yes"}, {"measurement": "Liver Toxicity Necrosis Classification", "setting": "Sprague Dawley rats; compound-dosegroup at 72 h, dose 250", "value": "yes"}, {"measurement": "Liver Toxicity Necrosis Classification", "setting": "Sprague Dawley rats; compound-dosegroup at 72 h, dose 1000", "value": "yes"}, {"measurement": "Liver Necrosis", "setting": "Sprague Dawley rats; dose 0.25 ml/kg", "value": "Yes"}, {"measurement": "Score (histopathology liver necrosis severity score)", "setting": "Sprague Dawley rats; dose 0.25 ml/kg", "value": 3}, {"measurement": "Liver Necrosis", "setting": "Sprague Dawley rats; dose 1 ml/kg", "value": "Yes"}, {"measurement": "Score (histopathology liver necrosis severity score)", "setting": "Sprague Dawley rats; dose 1 ml/kg", "value": 6}, {"measurement": "14-3-3 zeta expression (treatment/control)", "setting": "[1]; dose 250, listed as CCL4", "value": "1.66 and 1.924 and 1.756"}, {"measurement": "17-beta hydroxysteroid dehydrogenase, type 2 expression (treatment/control)", "setting": "[1]; dose 250, listed as CCL4", "value": "1.054 and 0.5508 and 0.756"}, {"measurement": "Cathepsin L, sequence 2 expression (treatment/control)", "setting": "[1]; dose 250, listed as CCL4", "value": "1.932 and 2.846 and 1.646"}, {"measurement": "Dynamin-1 (D100) expression (treatment/control)", "setting": "[1]; dose 250, listed as CCL4", "value": "0.7967 and 0.581 and 0.7391"}, {"measurement": "Gadd45 expression (treatment/control)", "setting": "[1]; dose 250, listed as CCL4", "value": "2.248 and 2.519 and 1.891"}, {"measurement": "Gamma-actin, cytoplasmic expression (treatment/control)", "setting": "[1]; dose 250, listed as CCL4", "value": "1.21 and 1.729 and 1.683"}, {"measurement": "Insulin-like growth factor binding protein 1 expression (treatment/control)", "setting": "[1]; dose 250, listed as CCL4", "value": "1.423 and 1.69 and 1.605"}, {"measurement": "L-gulono-gamma-lactone oxidase expression (treatment/control)", "setting": "[1]; dose 250, listed as CCL4", "value": "0.5457 and 0.345 and 0.5416"}, {"measurement": "Matrin F/G expression (treatment/control)", "setting": "[1]; dose 250, listed as CCL4", "value": "0.8257 and 0.6948 and 0.7947"}, {"measurement": "Ornithine decarboxylase expression (treatment/control)", "setting": "[1]; dose 250, listed as CCL4", "value": "1.229 and 1.514 and 1.453"}, {"measurement": "PAR interacting protein expression (treatment/control)", "setting": "[1]; dose 250, listed as CCL4", "value": "1.251 and 1.611 and 1.178"}, {"measurement": "Phase-1 RCT-33 expression (treatment/control)", "setting": "[1]; dose 250, listed as CCL4", "value": 0.7}, {"measurement": "Phase-1 RCT-36 expression (treatment/control)", "setting": "[1]; dose 250, listed as CCL4", "value": "0.9183 and 0.9601"}, {"measurement": "Phase-1 RCT-38 expression (treatment/control)", "setting": "[1]; dose 250, listed as CCL4", "value": "0.6811 and 0.8069"}, {"measurement": "Phase-1 RCT-39 expression (treatment/control)", "setting": "[1]; dose 250, listed as CCL4", "value": 1.553}, {"measurement": "Phase-1 RCT-40 expression (treatment/control)", "setting": "[1]; dose 250, listed as CCL4", "value": 0.8329}, {"measurement": "Phase-1 RCT-48 expression (treatment/control)", "setting": "[1]; dose 250, listed as CCL4", "value": 0.8905}, {"measurement": "Phase-1 RCT-49 expression (treatment/control)", "setting": "[1]; dose 250, listed as CCL4", "value": "1.595 and 1.935 and 1.969"}, {"measurement": "Phase-1 RCT-50 expression (treatment/control)", "setting": "[1]; dose 250, listed as CCL4", "value": "1.199 and 1.292"}, {"measurement": "Phase-1 RCT-68 expression (treatment/control)", "setting": "[1]; dose 250, listed as CCL4", "value": 1.615}, {"measurement": "Phase-1 RCT-78 expression (treatment/control)", "setting": "[1]; dose 250, listed as CCL4", "value": 0.6214}, {"measurement": "Phase-1 RCT-83 expression (treatment/control)", "setting": "[1]; dose 250, listed as CCL4", "value": "0.8265 and 0.5965 and 0.5296"}, {"measurement": "Phase-1 RCT-89 expression (treatment/control)", "setting": "[1]; dose 250, listed as CCL4", "value": "0.7738 and 0.5787 and 0.6881"}, {"measurement": "Phase-1 RCT-92 expression (treatment/control)", "setting": "[1]; dose 250, listed as CCL4", "value": "0.6412 and 0.598 and 0.6063"}, {"measurement": "Phase-1 RCT-128 expression (treatment/control)", "setting": "[1]; dose 250, listed as CCL4", "value": "0.7659 and 0.5352 and 0.6882"}, {"measurement": "Phase-1 RCT-144 expression (treatment/control)", "setting": "[1]; dose 250, listed as CCL4", "value": "1.636 and 2.462 and 1.54"}, {"measurement": "Phase-1 RCT-145 expression (treatment/control)", "setting": "[1]; dose 250, listed as CCL4", "value": 1.894}, {"measurement": "Phase-1 RCT-180 expression (treatment/control)", "setting": "[1]; dose 250, listed as CCL4", "value": 1.103}, {"measurement": "Phase-1 RCT-182 expression (treatment/control)", "setting": "[1]; dose 250, listed as CCL4", "value": "0.5663 and 0.6692"}, {"measurement": "Phase-1 RCT-213 expression (treatment/control)", "setting": "[1]; dose 250, listed as CCL4", "value": "1.658 and 1.455"}, {"measurement": "Phase-1 RCT-256 expression (treatment/control)", "setting": "[1]; dose 250, listed as CCL4", "value": "0.6795 and 0.8008"}, {"measurement": "Phase-1 RCT-264 expression (treatment/control)", "setting": "[1]; dose 250, listed as CCL4", "value": "0.5556 and 0.3693 and 0.5559"}, {"measurement": "Phase-1 RCT-288 expression (treatment/control)", "setting": "[1]; dose 250, listed as CCL4", "value": "0.6979 and 0.5773 and 0.6386"}, {"measurement": "Phase-1 RCT-291 expression (treatment/control)", "setting": "[1]; dose 250, listed as CCL4", "value": "0.7629 and 0.7701"}, {"measurement": "Phase-1 RCT-295 expression (treatment/control)", "setting": "[1]; dose 250, listed as CCL4", "value": "1.942 and 1.579"}, {"measurement": "Ribosomal protein S17 expression (treatment/control)", "setting": "[1]; dose 250, listed as CCL4", "value": "1.826 and 2.664 and 2.129"}, {"measurement": "Senescence marker protein-30 expression (treatment/control)", "setting": "[1]; dose 250, listed as CCL4", "value": "0.7864 and 0.5048 and 0.8299"}, {"measurement": "Zinc finger protein expression (treatment/control)", "setting": "[1]; dose 250, listed as CCL4", "value": "1.078 and 1.318 and 1.451"}, {"measurement": "14-3-3 zeta expression (treatment/control)", "setting": "[1]; dose 1000", "value": 2.165}, {"measurement": "17-beta hydroxysteroid dehydrogenase, type 2 expression (treatment/control)", "setting": "[1]; dose 1000", "value": 0.5477}, {"measurement": "Cathepsin L, sequence 2 expression (treatment/control)", "setting": "[1]; dose 1000", "value": 4.767}, {"measurement": "Dynamin-1 (D100) expression (treatment/control)", "setting": "[1]; dose 1000", "value": 0.4373}, {"measurement": "Gadd45 expression (treatment/control)", "setting": "[1]; dose 1000", "value": 2.03}, {"measurement": "Gamma-actin, cytoplasmic expression (treatment/control)", "setting": "[1]; dose 1000", "value": 2.857}, {"measurement": "Insulin-like growth factor binding protein 1 expression (treatment/control)", "setting": "[1]; dose 1000", "value": 2.908}, {"measurement": "L-gulono-gamma-lactone oxidase expression (treatment/control)", "setting": "[1]; dose 1000", "value": 0.2874}, {"measurement": "Matrin F/G expression (treatment/control)", "setting": "[1]; dose 1000", "value": 0.5748}, {"measurement": "Ornithine decarboxylase expression (treatment/control)", "setting": "[1]; dose 1000", "value": 2.004}, {"measurement": "PAR interacting protein expression (treatment/control)", "setting": "[1]; dose 1000", "value": 1.736}, {"measurement": "Phase-1 RCT-33 expression (treatment/control)", "setting": "[1]; dose 1000", "value": 0.4824}, {"measurement": "Phase-1 RCT-36 expression (treatment/control)", "setting": "[1]; dose 1000", "value": 0.6382}, {"measurement": "Phase-1 RCT-38 expression (treatment/control)", "setting": "[1]; dose 1000", "value": 0.5871}, {"measurement": "Phase-1 RCT-39 expression (treatment/control)", "setting": "[1]; dose 1000", "value": 1.821}, {"measurement": "Phase-1 RCT-40 expression (treatment/control)", "setting": "[1]; dose 1000", "value": 0.7596}, {"measurement": "Phase-1 RCT-48 expression (treatment/control)", "setting": "[1]; dose 1000", "value": 0.9803}, {"measurement": "Phase-1 RCT-49 expression (treatment/control)", "setting": "[1]; dose 1000", "value": 2.488}, {"measurement": "Phase-1 RCT-50 expression (treatment/control)", "setting": "[1]; dose 1000", "value": 1.792}, {"measurement": "Phase-1 RCT-68 expression (treatment/control)", "setting": "[1]; dose 1000", "value": 1.656}, {"measurement": "Phase-1 RCT-78 expression (treatment/control)", "setting": "[1]; dose 1000", "value": 0.5578}, {"measurement": "Phase-1 RCT-83 expression (treatment/control)", "setting": "[1]; dose 1000", "value": 0.3247}, {"measurement": "Phase-1 RCT-89 expression (treatment/control)", "setting": "[1]; dose 1000", "value": 0.4606}, {"measurement": "Phase-1 RCT-92 expression (treatment/control)", "setting": "[1]; dose 1000", "value": 0.3009}, {"measurement": "Phase-1 RCT-128 expression (treatment/control)", "setting": "[1]; dose 1000", "value": 0.3095}, {"measurement": "Phase-1 RCT-144 expression (treatment/control)", "setting": "[1]; dose 1000", "value": 2.627}, {"measurement": "Phase-1 RCT-145 expression (treatment/control)", "setting": "[1]; dose 1000", "value": 1.753}, {"measurement": "Phase-1 RCT-180 expression (treatment/control)", "setting": "[1]; dose 1000", "value": 1.291}, {"measurement": "Phase-1 RCT-182 expression (treatment/control)", "setting": "[1]; dose 1000", "value": 0.3598}, {"measurement": "Phase-1 RCT-207 expression (treatment/control)", "setting": "[1]; dose 1000", "value": 2.086}, {"measurement": "Phase-1 RCT-213 expression (treatment/control)", "setting": "[1]; dose 1000", "value": 1.988}, {"measurement": "Phase-1 RCT-256 expression (treatment/control)", "setting": "[1]; dose 1000", "value": 0.6382}, {"measurement": "Phase-1 RCT-264 expression (treatment/control)", "setting": "[1]; dose 1000", "value": 0.2087}, {"measurement": "Phase-1 RCT-288 expression (treatment/control)", "setting": "[1]; dose 1000", "value": 0.4221}, {"measurement": "Phase-1 RCT-291 expression (treatment/control)", "setting": "[1]; dose 1000", "value": 0.5561}, {"measurement": "Phase-1 RCT-295 expression (treatment/control)", "setting": "[1]; dose 1000", "value": 2.11}, {"measurement": "Phase-1 RCT-296 expression (treatment/control)", "setting": "[1]; dose 1000", "value": 0.2278}, {"measurement": "Ribosomal protein S17 expression (treatment/control)", "setting": "[1]; dose 1000", "value": 3.461}, {"measurement": "Senescence marker protein-30 expression (treatment/control)", "setting": "[1]; dose 1000", "value": 0.2057}, {"measurement": "Zinc finger protein expression (treatment/control)", "setting": "[1]; dose 1000", "value": 1.697}]}]}
